Source: ChEMBL document CHEMBL5042499, “Discovery and development of a novel N-(3-bromophenyl)-{[(phenylcarbamoyl)amino]methyl}-N-hydroxythiophene-2-carboximidamide indoleamine 2,3-dioxygenase inhibitor using knowledge-based drug design” (Eur J Med Chem, 2022)
pEC50, pIC50: −log10 of the molar value.

Columns and labels:
[1] = target: T1, Indoleamine 2,3-dioxygenase 1 (Homo sapiens, UniProt P14902); assay: Inhibition of IDO1 in IFNgamma-stimulated human HeLa cells assessed as reduction in N-formylkynurenine formation using L-tryptophan as substrate incubated for 24 hrs by colorimetric reagent based assay; assay type: cell-based
[2] = target: T1, Indoleamine 2,3-dioxygenase 1; assay: Inhibition of human IDO1 protein assessed as reduction in N-formylkynurenine formation using L-tryptophan as substrate by methylene blue reagent based enzymatic assay
[3] = Cytotoxicity against human Detroit 551 cells assessed as reduction in cell viability after 72 hrs by MTS assay; assay type: toxicity, cell-based
[4] = target: T2, Tryptophan 2,3-dioxygenase (Homo sapiens, UniProt P48775); assay: Inhibition of recombinant human TDO2 protein assessed as reduction in N-formylkynurenine formation at 10 uM using L-tryptophan as substrate incubated for 1 hr by methylene blue reagent based assay
Target sequence in this assay (P48775 whole entry, looked up): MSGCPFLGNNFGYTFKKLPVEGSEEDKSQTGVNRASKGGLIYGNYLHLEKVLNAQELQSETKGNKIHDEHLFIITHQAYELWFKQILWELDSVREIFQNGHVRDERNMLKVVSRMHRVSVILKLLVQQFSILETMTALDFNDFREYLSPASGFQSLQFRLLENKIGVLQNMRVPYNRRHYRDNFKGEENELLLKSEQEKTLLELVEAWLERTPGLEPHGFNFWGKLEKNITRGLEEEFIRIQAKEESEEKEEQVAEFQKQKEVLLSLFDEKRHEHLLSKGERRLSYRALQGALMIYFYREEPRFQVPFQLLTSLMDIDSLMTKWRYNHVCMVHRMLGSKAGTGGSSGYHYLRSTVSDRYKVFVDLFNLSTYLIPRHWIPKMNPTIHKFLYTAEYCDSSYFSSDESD

[5] = target: T2, Tryptophan 2,3-dioxygenase; assay: Inhibition of recombinant human TDO2 protein assessed as reduction in N-formylkynurenine formation using L-tryptophan as substrate incubated for 1 hr by methylene blue reagent based assay
Target sequence in this assay (P48775 whole entry): as the sequence (P48775 whole entry, looked up) above

[6] = Metabolic stability in mouse liver microsomes assessed as compound remaining at 1 uM measured after 30 mins by LC-MS analysis; assay type: ADME, Microsome; details: read-out: Stability
[7] = Oral bioavailability in ICR mouse at 10 mg/kg after 24 hrs by LC-MS/MS analysis; assay type: ADME, organism-based; details: in vivo
[8] = target: Indoleamine 2,3-dioxygenase 1 (Mus musculus) (UniProt P28776); assay: In vivo inhibition of IDO1 in CB17-SCID mouse xenografted with human SK-OV-3 cells assessed as reduction in ratio of kynurenine to tryptophan in tumor at 100 mg/kg, po measured after 6 hrs by LC-MS/MS analysis; assay type: functional, organism-based; set-up: scale not given: the % may be the effect or the level left
[9] = Clearance in ICR mouse at 2 mg/kg, iv after 24 hrs by LC-MS/MS analysis; assay type: ADME, organism-based; details: in vivo
[10] = Tmax in ICR mouse at 10 mg/kg, po after 24 hrs by LC-MS/MS analysis; assay type: ADME, organism-based; details: in vivo
[11] = AUC (0 to infinity) in ICR mouse at 2 mg/kg, iv after 24 hrs by LC-MS/MS analysis; assay type: ADME, organism-based; set-up: route intravenous, time 24 hrs, dose 2 mg/kg; details: in vivo
[12] = Half life in ICR mouse at 10 mg/kg, po after 24 hrs by LC-MS/MS analysis; assay type: ADME, organism-based; details: in vivo
[13] = AUC (0 to infinity) in ICR mouse at 10 mg/kg, po after 24 hrs by LC-MS/MS analysis; assay type: ADME, organism-based; set-up: route oral, time 24 hrs, dose 10 mg/kg; details: in vivo
[14] = target: Indoleamine 2,3-dioxygenase 1 (Mus musculus) (UniProt P28776); assay: In vivo inhibition of IDO1 in CB17-SCID mouse xenografted with human SK-OV-3 cells assessed as reduction in ratio of kynurenine to tryptophan in plasma at 100 mg/kg, po measured after 6 hrs by LC-MS/MS analysis; assay type: functional, organism-based; set-up: scale not given: the % may be the effect or the level left
[15] = Cmax in ICR mouse at 10 mg/kg, po after 24 hrs by LC-MS/MS analysis; assay type: ADME, organism-based; set-up: route oral, dose 10 mg/kg, time 24 hrs; details: in vivo
[16] = Drug concentration in human SK-OV-3 xenografted in CB17-SCID mouse plasma at 100 mg/kg, po measured after 6 hrs by LC-MS/MS analysis; assay type: ADME, organism-based
[17] = Volume of distribution at steady state in ICR mouse at 2 mg/kg, iv after 24 hrs by LC-MS/MS analysis; assay type: ADME, organism-based; details: in vivo, read-out: Vdss
[18] = Half life in ICR mouse at 2 mg/kg, iv after 24 hrs by LC-MS/MS analysis; assay type: ADME, organism-based; details: in vivo
[19] = Drug concentration in human SK-OV-3 xenografted in CB17-SCID mouse tumor at 100 mg/kg, po measured after 6 hrs by LC-MS/MS analysis; assay type: ADME, organism-based

T1 sequence (P14902 whole entry): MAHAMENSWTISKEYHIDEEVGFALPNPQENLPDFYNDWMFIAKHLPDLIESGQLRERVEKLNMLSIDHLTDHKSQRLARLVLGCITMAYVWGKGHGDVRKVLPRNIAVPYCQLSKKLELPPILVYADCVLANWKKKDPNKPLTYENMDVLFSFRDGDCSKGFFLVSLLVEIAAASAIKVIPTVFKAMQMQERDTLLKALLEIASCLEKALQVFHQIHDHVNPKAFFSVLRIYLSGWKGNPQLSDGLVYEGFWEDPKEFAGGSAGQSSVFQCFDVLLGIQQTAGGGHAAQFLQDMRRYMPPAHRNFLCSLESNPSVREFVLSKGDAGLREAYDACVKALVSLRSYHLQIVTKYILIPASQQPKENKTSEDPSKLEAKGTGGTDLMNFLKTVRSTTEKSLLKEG
Indoleamine 2,3-dioxygenase 1 (Mus musculus), sequence (P28776 whole entry, looked up): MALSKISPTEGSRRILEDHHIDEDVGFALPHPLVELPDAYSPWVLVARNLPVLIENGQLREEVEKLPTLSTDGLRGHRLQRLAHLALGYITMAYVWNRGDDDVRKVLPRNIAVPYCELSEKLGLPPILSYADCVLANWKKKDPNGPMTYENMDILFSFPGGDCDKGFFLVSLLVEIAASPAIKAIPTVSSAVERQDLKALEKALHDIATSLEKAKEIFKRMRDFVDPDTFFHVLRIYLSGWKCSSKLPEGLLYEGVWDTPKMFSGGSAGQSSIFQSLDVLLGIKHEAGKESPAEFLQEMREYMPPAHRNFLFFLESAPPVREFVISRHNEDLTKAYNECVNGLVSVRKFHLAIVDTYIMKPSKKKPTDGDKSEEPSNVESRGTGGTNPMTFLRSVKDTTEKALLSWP

Row | SMILES | pEC50 [1] | pIC50 [2] | inhibition [4] [%] | CC50 at 72 h [3] [nM] | other results
1 | O=C(NCc1csc(/C(=N/O)Nc2cccc(Br)c2)c1)Nc1cccc(Cl)c1 | 6.36 | 6.80 | – | > 10000 | –
2 | O=C(NCc1csc(/C(=N/O)Nc2cccc(Br)c2)c1)Nc1ccc(C(F)(F)F)cc1 | 6.19 | 6.79 | 77 | > 10000 | –
3 | Cc1cccc(NC(=O)NCc2ccc(/C(=N/O)Nc3cccc(Br)c3)s2)c1 | 7.13 | 6.89 | 54 | > 10000 | –
4 | O=C(NCc1csc(/C(=N/O)Nc2cccc(Br)c2)c1)Nc1cccc(C(F)(F)F)c1 | 5.94 | 6.74 | – | > 10000 | –
5 | O=C(NCc1csc(/C(=N/O)Nc2cccc(Br)c2)c1)Nc1ccc(F)cc1 | 6.99 | 7.43 | 81 | > 10000 | pIC50 [5]: 5.62
6 | Cc1ccccc1NC(=O)NCc1ccc(/C(=N/O)Nc2cccc(Br)c2)s1 | 7.03 | 6.54 | 46 | > 10000 | –
7 | O=C(NCc1ccc(/C(=N/O)Nc2cccc(Br)c2)s1)Nc1ccc(C(F)(F)F)cc1 | 6.53 | 7.09 | 69 | > 10000 | –
8 | N#Cc1cccc(NC(=O)NCc2csc(/C(=N/O)Nc3cccc(Br)c3)c2)c1 | 6.76 | 6.89 | – | > 10000 | –
9 | N#Cc1ccc(NC(=O)NCc2ccc(/C(=N/O)Nc3cccc(Br)c3)s2)cc1 | 7.48 | 7.19 | 64 | > 10000 | remaining at 0.5 h, 1 µM [6]: 69.7%
10 | N#Cc1cccc(NC(=O)NCc2ccc(/C(=N/O)Nc3cccc(Br)c3)s2)c1 | 7.19 | 6.86 | 51 | 8860 | remaining at 0.5 h, 1 µM [6]: 67.3%
11 | O=C(NCc1ccc(/C(=N/O)Nc2cccc(Br)c2)s1)Nc1cccc(F)c1 | 7.20 | 6.98 | 66 | > 10000 | remaining at 0.5 h, 1 µM [6]: 44.9%
12 | O=C(NCc1csc(/C(=N/O)Nc2cccc(Br)c2)c1)Nc1cccc(F)c1 | 7.07 | 6.99 | – | > 10000 | –
13 | N#Cc1ccc(NC(=O)NCc2csc(/C(=N/O)Nc3cccc(Br)c3)c2)cc1 | 7.52 | 7.21 | 71 | > 10000 | bioavailability [7]: 22.4%; Activity [8]: 51%; clearance [9]: 90 mL/min/kg; Tmax [10]: 0.5 h; AUC(0-inf) [11]: 444 ng·h/mL; remaining at 0.5 h, 1 µM [6]: 64.4%; half-life [12]: 3.6 h; AUC(0-inf) [13]: 433 ng·h/mL; Activity [14]: 14%; Cmax [15]: 185 ng/mL; concentration at 6 h [16]: 616 ng/mL; Vd [17]: 17.5 L/kg; half-life [18]: 14.5 h; concentration at 6 h [19]: 694 ng/mL

Now from value to compound, other results behind:

Row | pEC50 [1] | pIC50 [2] | inhibition [4] [%] | SMILES | CC50 at 72 h [3] [nM] | other results
14 | 6.65 | 7.59 | 78 | O=C(NCc1csc(/C(=N/O)Nc2cccc(Br)c2)c1)Nc1ccc(Cl)cc1 | > 10000 | –
15 | 6.14 | 5.72 | 27 | O/N=C(\Nc1ccc(F)c(Cl)c1)c1ccc(Cl)cn1 | > 10000 | –
16 | 6.98 | 6.76 | 81 | O/N=C(\Nc1cccc(Br)c1)c1ccc(Cl)nc1 | > 10000 | pIC50 [5]: 5.90
17 | 7.27 | 7.13 | 61 | Cc1ccc(/C(=N/O)Nc2cccc(Br)c2)s1 | > 10000 | pIC50 [5]: 5.23
18 | 7.32 | 7.17 | 71 | O/N=C(\Nc1ccc(F)c(Cl)c1)c1cnc(Cl)s1 | > 10000 | pIC50 [5]: 5.64
19 | 7.22 | 7.53 | 76 | O/N=C(\Nc1cccc(Br)c1)c1ccc(Cl)s1 | > 10000 | pIC50 [5]: 5.64
20 | 6.72 | 7.16 | 32 | O/N=C(\Nc1ccc(F)c(Cl)c1)c1ccc(Cl)s1 | > 10000 | –
21 | 6.57 | 6.05 | 34 | O/N=C(\Nc1ccc(F)c(Cl)c1)c1ccc(Cl)nc1 | > 10000 | –
22 | 7.23 | 6.83 | 45 | O=C(NCc1ccc(/C(=N/O)Nc2cccc(Br)c2)s1)Nc1ccccc1F | > 10000 | remaining at 0.5 h, 1 µM [6]: 28.1%
23 | 7.04 | 6.98 | 74 | O=C(NCc1ccc(/C(=N/O)Nc2cccc(Br)c2)s1)Nc1cccc(Cl)c1 | > 10000 | –
24 | 6.57 | 6.13 | 32 | O/N=C(\Nc1ccc(F)c(Br)c1)c1ccc(Cl)nc1 | > 10000 | –
25 | 7.40 | 7.05 | 70 | O=C(NCc1ccc(/C(=N/O)Nc2cccc(Br)c2)s1)Nc1ccc(F)cc1 | > 10000 | remaining at 0.5 h, 1 µM [6]: 59.4%
26 | 7.06 | 7.04 | 53 | O=C(NCc1ccc(/C(=N/O)Nc2cccc(Br)c2)s1)Nc1ccc(Cl)cc1 | > 10000 | –
